Measured values: PMC5784245, “An Optimized Synthetic-Bioinformatic Natural Product Antibiotic Sterilizes Multidrug-Resistant Acinetobacter baumannii-Infected Wounds” (mSphere, 2018)
≈ marks a conversion by molar mass, not a printed value. Like-named read-outs stand apart in the source and are kept apart here. Non-standard residues stand in square brackets, D forms with d. Residues, ends and D or L forms follow the SMILES beside them. *: point of attachment. Decanoyl = CCCCCCCCCC(=O)*; dOrn = NCCC[C@@H](N)C(=O)O; Orn = NCCC[C@H](N)C(=O)O

Key:
Format in all cases: cell-based
Acinetobacter baumannii = tested on: Acinetobacter baumannii
Description: (§1) Wang resins were purchased from Matrix Innovation. Reagents for peptide synthesis were purchased from P3 BioSystems, Chempep, and Chem-Impex International. The fluorescent dyes DiBAC4 and SYTOX were purchased from Thermo Fisher Scientific, and media were prepared from premixed powders: brain heart infusion for S. sobrinus and L. rhamnosus (Hardy Diagnostics), yeast extract-peptone-dextrose for C. albicans, lysogeny broth (LB) for all other bacteria (BD Biosciences), and McCoy’s 5A medium with 10% fetal bovine serum for HT-29 cells (American Type Culture Collection). All other chemicals and consumables were purchased from Sigma-Aldrich and VWR International. Paenimucillin 4F for in vivo studies was purchased from Ontores Biotechnologies as a high-performance liquid chromatography (HPLC)-purified peptide and used as is. Dye assays were performed in a Gen5 microtiter plate reader (Biotek Instruments). Liquid chromatography-mass spectrometry (LC-MS) analyses were performed by using an Acquity system (Waters Corporation).
(§2) Standard susceptibility assays were performed in LB medium in 96-well microtiter plates to determine the MIC by the broth microdilution method in accordance with protocols recommended by Clinical and Laboratory Standards Institute ([35]). Cytotoxicity was assessed using human HT-29 cells based on a similar broth microdilution method ([36]). All assays were performed in duplicate. For the cytotoxicity assay, 5,000 HT-29 cells per well were seeded into a microtiter plate and cultured for 24 h at 37°C in a 5% CO2 atmosphere. Peptides were supplemented at concentrations ranging from 128 to 0.5 μg/ml, and the cells were incubated for another 20 h. Growth media were removed, 3-(4,5-dimethylthiazol-2-yl)-2,5-diphenyltetrazolium bromide (MTT) was added to all wells (220 μl per well at 0.5 mg/ml), the mixture was incubated for 4 h, and then the media were discarded. Cell viability was determined by visual inspection.

Bacillus subtilis = settings: 24 h
Description: as §1, §2

Enterobacter cloacae = settings: 24 h
Description: as §1, §2

Enterococcus faecalis = settings: 24 h
Description: as §1, §2

Enterococcus faecium = tested on: Enterococcus faecium
Description: as §1, §2

Klebsiella pneumoniae = settings: 24 h
Description: as §1, §2

Lactobacillus rhamnosus = settings: 24 h
Description: as §1, §2

Pseudomonas aeruginosa = settings: 24 h
Description: as §1, §2

Staphylococcus aureus = settings: 24 h
Description: as §1, §2

Streptococcus sobrinus = settings: 24 h
Description: as §1, §2

| SMILES | MIC Acinetobacter baumannii (Acinetobacter baumannii; 24 h) [µg/mL] | MIC Bacillus subtilis (Bacillus subtilis) [µg/mL] | MIC Enterobacter cloacae (Enterobacter cloacae) [µg/mL] | MIC Enterococcus faecalis (Enterococcus faecalis) [µg/mL] | MIC Enterococcus faecium (Enterococcus faecium; 24 h) [µg/mL] | MIC Klebsiella pneumoniae (Klebsiella pneumoniae) [µg/mL] | MIC Lactobacillus rhamnosus (Lactobacillus rhamnosus) [µg/mL] | MIC Pseudomonas aeruginosa (Pseudomonas aeruginosa) [µg/mL] | MIC Staphylococcus aureus (Staphylococcus aureus) [µg/mL] | MIC Streptococcus sobrinus (Streptococcus sobrinus) [µg/mL] | MIC Acinetobacter baumannii (Acinetobacter baumannii; strain ATCC 17978, LB medium, broth microdilution, duplicate) [µg/mL] | MIC Enterococcus faecium (Enterococcus faecium; strain Com15, LB medium, broth microdilution, duplicate) [µg/mL] |
| --- | --- | --- | --- | --- | --- | --- | --- | --- | --- | --- | --- | --- |
| CC[C@@H](C)[C@@H](NC(=O)[C@@H](NC(=O)[C@H](CO)NC(=O)[C@H](Cc1c[nH]c2ccccc12)NC(=O)[C@@H](CCCN)NC(=O)[C@H](CO)NC(=O)[C@H](CO)NC(=O)[C@@H](Cc1c[nH]c2ccccc12)NC(=O)[C@@H](CO)NC(=O)[C@H](NC(=O)[C@@H](CCCN)NC(=O)[C@H](N)Cc1ccccc1)[C@H](C)CC)C(C)C)C(=O)N[C@@H](CCCN)C(=O)O [5W] (H-[dF][dOrn][dI][dS][dW]SS[dOrn]WSV[dI][Orn]-OH) | 4 (≈ 2.57 µM) | 2 (≈ 1.29 µM) | 4 (≈ 2.57 µM) | 4 (≈ 2.57 µM) | 8 (≈ 5.15 µM) | 4 (≈ 2.57 µM) | 4 (≈ 2.57 µM) | 16 (≈ 10.3 µM) | 8 (≈ 5.15 µM) | 4 (≈ 2.57 µM) | – | – |
| CC[C@@H](C)[C@@H](NC(=O)[C@@H](NC(=O)[C@H](CO)NC(=O)[C@H](Cc1ccccc1)NC(=O)[C@@H](CCCN)NC(=O)[C@H](CO)NC(=O)[C@H](CO)NC(=O)[C@@H](Cc1ccccc1)NC(=O)[C@@H](CO)NC(=O)[C@H](NC(=O)[C@@H](CCCN)NC(=O)[C@H](N)Cc1ccccc1)[C@H](C)CC)C(C)C)C(=O)N[C@@H](CCCN)C(=O)O [5F] (H-[dF][dOrn][dI][dS][dF]SS[dOrn]FSV[dI][Orn]-OH) | 32 (≈ 21.7 µM) | 16 (≈ 10.8 µM) | 8 (≈ 5.42 µM) | 32 (≈ 21.7 µM) | 32 (≈ 21.7 µM) | 4 (≈ 2.71 µM) | 128 (≈ 86.7 µM) | 64 (≈ 43.4 µM) | 64 (≈ 43.4 µM) | 64 (≈ 43.4 µM) | – | – |
| CCCCCCCCCC(=O)N[C@H](Cc1ccccc1)C(=O)N[C@H](CCCN)C(=O)N[C@@H](C(=O)N[C@H](CO)C(=O)N[C@H](Cc1c[nH]c2ccccc12)C(=O)N[C@@H](CO)C(=O)N[C@@H](CO)C(=O)N[C@H](CCCN)C(=O)N[C@@H](Cc1c[nH]c2ccccc12)C(=O)N[C@@H](CO)C(=O)N[C@H](C(=O)N[C@@H](C(=O)N[C@@H](CCCN)C(=O)O)[C@H](C)CC)C(C)C)[C@H](C)CC [1W, paenimucillin B] (Decanoyl-[dF][dOrn][dI][dS][dW]SS[dOrn]WSV[dI][Orn]-OH) | 128 (≈ 74.9 µM) | 16 (≈ 9.37 µM) | – | 128 (≈ 74.9 µM) | 4 (≈ 2.34 µM) | – | 2 (≈ 1.17 µM) | – | 64 (≈ 37.5 µM) | 1 (≈ 0.585 µM) | – | – |
| CCCCCCCCCC(=O)N[C@H](Cc1ccccc1)C(=O)N[C@H](CCCN)C(=O)N[C@@H](C(=O)N[C@H](CO)C(=O)N[C@H](Cc1ccccc1)C(=O)N[C@@H](CO)C(=O)N[C@@H](CO)C(=O)N[C@H](CCCN)C(=O)N[C@@H](Cc1ccccc1)C(=O)N[C@@H](CO)C(=O)N[C@H](C(=O)N[C@@H](C(=O)N[C@@H](CCCN)C(=O)O)[C@H](C)CC)C(C)C)[C@H](C)CC [1F, paenimucillin A] (Decanoyl-[dF][dOrn][dI][dS][dF]SS[dOrn]FSV[dI][Orn]-OH) | – | 4 (≈ 2.45 µM) | – | 32 (≈ 19.6 µM) | – | – | 16 (≈ 9.82 µM) | – | 16 (≈ 9.82 µM) | 2 (≈ 1.23 µM) | 16 (≈ 9.82 µM) | 4 (≈ 2.45 µM) |
